Measurements reported in patent publication US7858635B2 (priority 2005, dated 2010).

How the values were obtained:
[1] = target: T1, M1 muscarinic receptor (Homo sapiens, UniProt P11229); experiment: Functional mobilization of intracellular calcium (FLIPR, Fluo-3), M1-CHO cells; format: cell-based; conditions: compound nos. 1-454; for Emax: 100% efficacy is the maximum response obtained with the Carbachol control, read-out: M1 Efficacy
T1 construct: expressed in transfected cells; host or cells: CHO cells (M1-CHO, under zeocin and G418 selection)
T1 sequence (P11229 1-460): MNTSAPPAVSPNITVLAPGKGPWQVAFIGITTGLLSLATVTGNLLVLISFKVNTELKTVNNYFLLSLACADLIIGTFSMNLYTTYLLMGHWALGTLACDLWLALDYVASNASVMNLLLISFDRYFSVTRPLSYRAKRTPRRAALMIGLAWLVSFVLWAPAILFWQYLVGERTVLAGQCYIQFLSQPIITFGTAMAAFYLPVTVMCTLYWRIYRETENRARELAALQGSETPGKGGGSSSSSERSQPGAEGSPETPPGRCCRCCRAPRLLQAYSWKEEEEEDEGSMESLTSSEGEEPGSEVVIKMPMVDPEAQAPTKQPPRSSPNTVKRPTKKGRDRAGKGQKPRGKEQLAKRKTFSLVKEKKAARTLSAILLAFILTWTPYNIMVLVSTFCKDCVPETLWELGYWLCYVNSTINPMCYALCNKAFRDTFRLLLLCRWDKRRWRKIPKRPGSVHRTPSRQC
In short: (§1)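 Intracellular calcium was tracked by fluorescence (488/540 nm) over 60 sec after compound addition to dye-loaded CHO cells expressing the receptor. Inhibitory activity used a 15 min pre-incubation before carbachol at the subtype EC80.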

[2] = target: T2, M4 muscarinic receptor (Homo sapiens, UniProt P08173); experiment: Functional mobilization of intracellular calcium (FLIPR, Fluo-3), M4-CHO cells; format: cell-based; conditions: compound nos. 1-454; for Emax: read-out: M4 Efficacy
T2 construct: expressed in transfected cells; host or cells: CHO cells (M4-CHO, under puromycin, zeocin and blasticidin selection)
T2 sequence (P08173 1-479): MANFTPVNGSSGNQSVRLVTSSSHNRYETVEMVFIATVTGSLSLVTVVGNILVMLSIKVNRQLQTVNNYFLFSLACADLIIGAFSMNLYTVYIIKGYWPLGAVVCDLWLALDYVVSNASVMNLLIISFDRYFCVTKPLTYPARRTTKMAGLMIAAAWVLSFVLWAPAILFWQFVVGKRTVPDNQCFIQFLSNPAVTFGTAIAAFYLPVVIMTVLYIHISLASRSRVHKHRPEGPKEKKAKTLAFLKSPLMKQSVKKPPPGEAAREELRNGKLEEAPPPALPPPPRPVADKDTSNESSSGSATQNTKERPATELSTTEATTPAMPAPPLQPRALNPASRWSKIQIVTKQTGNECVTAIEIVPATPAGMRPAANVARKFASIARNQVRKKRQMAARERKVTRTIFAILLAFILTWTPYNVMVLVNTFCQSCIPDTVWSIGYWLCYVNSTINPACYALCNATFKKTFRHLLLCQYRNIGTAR
In short: as §1

[3] = M1-CHO cells, calcium mobilization
[4] = 100% efficacy is the maximum response obtained with the Carbachol control
[5] = M4-CHO cells, calcium mobilization

Row | Compound | Emax [1] [%] | M1 Activity [1, 3] | Emax [2, 4] [%] | M4 Activity [2, 5] | M1 Activity [1] | M4 Activity [2] | M4 Efficacy [2, 4]
1 | CCC1CCC(N2CCC3(CC2)C[C@H](NC(C)=O)c2ccccc23)CC1 (stereo partly shown) [compound 367] | < 65 | + (activity was measured to be greater than or equal to 3.0 μM) | < 55 | + (activity was measured to be greater than or equal to 4.0 μM) |  |  | 
2 | CCOC(=O)N1C2CCC1CC(CN1CCC3(CC1)CNc1ccc(F)cc13)C2 (stereo not shown) [compound 368] | < 65 | +++ (activity was measured to be less than or equal to 0.7 μM) | < 55 | ++ (activity was measured to be between 0.1 μM and 4.0 μM) |  |  | 
3 | Clc1ccc2c(c1)C1(CCO2)CCN([C@@H]2C[C@@H]3CC[C@@H]2C3)CC1 [compound 369] | > 85 | +++ (activity was measured to be less than or equal to 0.7 μM) | > 70 | ++ (activity was measured to be between 0.1 μM and 4.0 μM) |  |  | 
4 | CCOC(=O)N1CCC(N2CCC3(CC2)CN(C(=O)OCCF)c2ccc(F)cc23)CC1 [compound 370] | 65 to 85 | +++ (activity was measured to be less than or equal to 0.7 μM) | > 70 | ++ (activity was measured to be between 0.1 μM and 4.0 μM) |  |  | 
5 | CCOC(=O)N1C2CCC1CC(N1CCC3(CC1)CN(C(C)=O)c1ccc(F)cc13)C2 (stereo not shown) [compound 371] | 65 to 85 | +++ (activity was measured to be less than or equal to 0.7 μM) | > 70 | + (activity was measured to be greater than or equal to 4.0 μM) |  |  | 
6 | Cc1ccc2c(c1)C1(CCN(CC3CC4CCC3O4)CC1)CN2 (stereo not shown) [compound 372] | 65 to 85 | +++ (activity was measured to be less than or equal to 0.7 μM) | > 70 | ++ (activity was measured to be between 0.1 μM and 4.0 μM) |  |  | 
7 | CCOC(=O)N1CCC(N2CCC3(CC2)CN(C(C)=O)c2ccc(-c4cccc(C#N)c4)cc23)CC1 [compound 373] | 65 to 85 | +++ (activity was measured to be less than or equal to 0.7 μM) | > 70 | ++ (activity was measured to be between 0.1 μM and 4.0 μM) |  |  | 
8 | COC(=O)N1CCC(N2CCC3(CC2)CN(C(C)=O)c2ccc(F)cc23)CC1 [compound 374] | 65 to 85 | ++ (activity was measured to be between 0.7 μM and 3.0 μM) | 55 to 70 | + (activity was measured to be greater than or equal to 4.0 μM) |  |  | 
9 | c1ccc2c(c1)NCC21CCN(C2CCCCC2)CC1 [compound 375] | > 85 |  | 55 to 70 |  | +++ (activity was measured to be less than or equal to 0.7 μM) | +++ (activity was measured to be less than or equal to 0.1 μM) | 
10 | Fc1ccc2c(c1)C1(CCN(C[C@H]3C[C@H]4C=C[C@H]3C4)CC1)CO2 [compound 376] | 65 to 85 |  | 55 to 70 |  | +++ (activity was measured to be less than or equal to 0.7 μM) | + (activity was measured to be greater than or equal to 4.0 μM) | 
11 | Fc1ccc2c(c1)C1(CCN(C3CC4CCC(C4)C3)CC1)CN2 (stereo not shown) [compound 377] | 65 to 85 |  | 55 to 70 |  | +++ (activity was measured to be less than or equal to 0.7 μM) | ++ (activity was measured to be between 0.1 μM and 4.0 μM) | 
12 | COCCOC(=O)N1C2CCC1CC(N1CCC3(CC1)COc1ccc(F)cc13)C2 (stereo not shown) [compound 378] | 65 to 85 |  | 55 to 70 |  | ++ (activity was measured to be between 0.7 μM and 3.0 μM) | + (activity was measured to be greater than or equal to 4.0 μM) | 
13 | O=C(C1CC1)N1CC2(CCN(C3CC4CCC(C3)N4C(=O)OC3CCC3)CC2)c2cc(F)ccc21 (stereo not shown) [compound 379] | 65 to 85 |  | 55 to 70 |  | +++ (activity was measured to be less than or equal to 0.7 μM) | ++ (activity was measured to be between 0.1 μM and 4.0 μM) | 
14 | CC(=O)N1CC2(CCN(C3CCN(C(=O)OC(C)C)CC3)CC2)c2cc(C)ccc21 [compound 380] | 65 to 85 |  | 55 to 70 |  | +++ (activity was measured to be less than or equal to 0.7 μM) | ++ (activity was measured to be between 0.1 μM and 4.0 μM) | 
15 | CCOC(=O)N1CCC(N2CCC3(CC2)CN(C(C)=O)c2c(F)cccc23)CC1 [compound 381] | 65 to 85 |  | < 55 |  | +++ (activity was measured to be less than or equal to 0.7 μM) | + (activity was measured to be greater than or equal to 4.0 μM) | 
16 | Cc1ccc2c(c1)C1(CCN(CC3CC4CCC3C4)CC1)CN2C(=O)OC(C)(C)C (stereo not shown) [compound 382] | 65 to 85 |  | 55 to 70 |  | +++ (activity was measured to be less than or equal to 0.7 μM) | + (activity was measured to be greater than or equal to 4.0 μM) | 
17 | COC(=O)N1C2CCC1CC(N1CCC3(CC1)CN(S(C)(=O)=O)c1ccc(F)cc13)C2 (stereo not shown) [compound 383] | 65 to 85 |  | < 55 |  | +++ (activity was measured to be less than or equal to 0.7 μM) | ++ (activity was measured to be between 0.1 μM and 4.0 μM) | 
18 | CCOC(=O)N1CCC(N2CCC3(CC2)CN(C(=O)c2ccccc2)c2ccc(F)cc23)CC1 [compound 384] | < 65 |  | < 55 |  | ++ (activity was measured to be between 0.7 μM and 3.0 μM) | + (activity was measured to be greater than or equal to 4.0 μM) | 
19 | CC(=O)CN1CC2(CCN(C[C@@H]3C[C@H]4C=C[C@H]3C4)CC2)c2cc(F)ccc21 [compound 385] | 65 to 85 |  | < 55 |  | ++ (activity was measured to be between 0.7 μM and 3.0 μM) | + (activity was measured to be greater than or equal to 4.0 μM) | 
20 | CCCOC(=O)N1C2CCC1CC(N1CCC3(CC1)CN(C(=O)OC)c1ccc(F)cc13)C2 (stereo not shown) [compound 386] | < 65 |  | < 55 |  | ++ (activity was measured to be between 0.7 μM and 3.0 μM) | ++ (activity was measured to be between 0.1 μM and 4.0 μM) | 
21 | CC(=O)N1CC2(CCN(C3CCCCC3)CC2)c2cc(F)ccc21 [compound 387] | 65 to 85 |  | < 55 |  | +++ (activity was measured to be less than or equal to 0.7 μM) | ++ (activity was measured to be between 0.1 μM and 4.0 μM) | 
22 | CS(=O)(=O)N1CC2(CCN(C3CC4CCC(C3)N4C(=O)O[C@H]3CCOC3)CC2)c2cc(F)ccc21 (stereo partly shown) [compound 388] | 65 to 85 |  | < 55 |  | +++ (activity was measured to be less than or equal to 0.7 μM) | + (activity was measured to be greater than or equal to 4.0 μM) | 
23 | CCCOC(=O)N1C2CCC1CC(N1CCC3(CC1)CN(C(=O)C1CC1)c1ccc(F)cc13)C2 (stereo not shown) [compound 389] | 65 to 85 |  | < 55 |  | ++ (activity was measured to be between 0.7 μM and 3.0 μM) | + (activity was measured to be greater than or equal to 4.0 μM) | 
24 | CCOC(=O)N1C2CCC1CC(N1CCC3(CC1)CN(C(=O)C(C)C)c1ccc(F)cc13)C2 (stereo not shown) [compound 390] | 65 to 85 |  | < 55 |  | +++ (activity was measured to be less than or equal to 0.7 μM) | + (activity was measured to be greater than or equal to 4.0 μM) | 
25 | CCOC(=O)N1CCC(N2CCC3(CC2)CN(CCOC)c2ccc(F)cc23)CC1 [compound 391] | < 65 |  | < 55 |  | ++ (activity was measured to be between 0.7 μM and 3.0 μM) | + (activity was measured to be greater than or equal to 4.0 μM) | 
26 | CC(=O)NC1CC2(CCN(C[C@H]3C[C@H]4C=C[C@H]3C4)CC2)c2ccccc21 (stereo partly shown) [compound 392] |  |  |  |  | +++ (activity was measured to be less than or equal to 0.7 μM) | + (activity was measured to be greater than or equal to 4.0 μM) | + (efficacy was calculated to be 55% or less)
